Test results from ChEMBL document CHEMBL3526057 (Drug Metab Dispos, 2011).

Experiments:
Type in all cases: ADME
Conditions in all cases: recombinant enzyme, 1 h
Cytochrome P450 2C19 [1] = biological target: T1, Cytochrome P450 2C19 (Homo sapiens, UniProt P33261, R144H); assay: Activity of human recombinant CYP2C19.9 mutant expressed in Saccharomyces cerevisiae BJ5457 assessed asomeprazole 5'-hydroxylation after 60 mins
Cytochrome P450 2C19 [2] = biological target: T2, Cytochrome P450 2C19 (Homo sapiens, UniProt P33261, F168L); assay: Activity of human recombinant CYP2C19 F168L mutant expressed in Saccharomyces cerevisiae BJ5457 assessed asomeprazole 5'-hydroxylation after 60 mins
Cytochrome P450 2C19 [3] = biological target: T3, Cytochrome P450 2C19 (Homo sapiens, UniProt P33261, W212C); assay: Activity of human recombinant CYP2C19 W212C mutant expressed in Saccharomyces cerevisiae BJ5457 assessed asomeprazole 5'-hydroxylation after 60 mins
Cytochrome P450 2C19 [4] = biological target: T1, Cytochrome P450 2C19; assay: Activity of human recombinant CYP2C19.9 mutant expressed in Saccharomyces cerevisiae BJ5457 assessed asomeprazole 5'-hydroxylation per pmol protein after 60 mins
Cytochrome P450 2C19 [5] = biological target: T4, Cytochrome P450 2C19 (Homo sapiens, UniProt P33261, E122A); assay: Activity of human recombinant CYP2C19 E122A mutant expressed in Saccharomyces cerevisiae BJ5457 assessed as intrinisic clearance foromeprazole 5'-hydroxylation per pmol protein after 60 mins
Cytochrome P450 2C19 [6] = biological target: Cytochrome P450 2C19 (Homo sapiens, UniProt P33261, E92D); assay: Activity of human recombinant CYP2C19 E92D mutant expressed in Saccharomyces cerevisiae BJ5457 assessed as omeprazole 5'-hydroxylation per pmol protein at 100 uM after 60 mins
Cytochrome P450 2C19 [7] = biological target: T4, Cytochrome P450 2C19; assay: Activity of human recombinant CYP2C19 E122A mutant expressed in Saccharomyces cerevisiae BJ5457 assessed asomeprazole 5'-hydroxylation after 60 mins
Cytochrome P450 2C19 [8] = biological target: T5, Cytochrome P450 2C19 (Homo sapiens, UniProt P33261, D360N); assay: Activity of human recombinant CYP2C19 D360N mutant expressed in Saccharomyces cerevisiae BJ5457 assessed asomeprazole 5'-hydroxylation per pmol protein after 60 mins
Cytochrome P450 2C19 [9] = biological target: T1, Cytochrome P450 2C19; assay: Activity of human recombinant CYP2C19.9 mutant expressed in Saccharomyces cerevisiae BJ5457 assessed as omeprazole 5'-hydroxylation per pmol protein at 5 uM after 60 mins
Cytochrome P450 2C19 [10] = biological target: T2, Cytochrome P450 2C19; assay: Activity of human recombinant CYP2C19 F168L mutant expressed in Saccharomyces cerevisiae BJ5457 assessed as omeprazole 5'-hydroxylation per pmol protein at 100 uM after 60 mins
Cytochrome P450 2C19 [11] = biological target: T6, Cytochrome P450 2C19 (Homo sapiens, UniProt P33261, R410C); assay: Activity of human recombinant CYP2C19.13 mutant expressed in Saccharomyces cerevisiae BJ5457 assessed as omeprazole 5'-hydroxylation per pmol protein at 5 uM after 60 mins
Cytochrome P450 2C19 [12] = biological target: Cytochrome P450 2C19 (Homo sapiens, UniProt P33261, I19L); assay: Activity of human recombinant CYP2C19.15 mutant expressed in Saccharomyces cerevisiae BJ5457 assessed asomeprazole 5'-hydroxylation per pmol protein after 60 mins
Cytochrome P450 2C19 [13] = biological target: T7, Cytochrome P450 2C19 (Homo sapiens, UniProt P33261); assay: Activity of human recombinant CYP2C19.8 mutant expressed in Saccharomyces cerevisiae BJ5457 assessed as omeprazole 5'-hydroxylation per pmol protein at 5 uM after 60 mins
Cytochrome P450 2C19 [14] = biological target: T8, Cytochrome P450 2C19 (Homo sapiens, UniProt P33261, R329H); assay: Activity of human recombinant CYP2C19.18 mutant expressed in Saccharomyces cerevisiae BJ5457 assessed as intrinisic clearance foromeprazole 5'-hydroxylation per pmol protein after 60 mins
Cytochrome P450 2C19 [15] = biological target: T7, Cytochrome P450 2C19; assay: Activity of human recombinant CYP2C19.1A mutant expressed in Saccharomyces cerevisiae BJ5457 assessed as omeprazole 5'-hydroxylation per pmol protein at 100 uM after 60 mins
Cytochrome P450 2C19 [16] = biological target: Cytochrome P450 2C19 (Homo sapiens, UniProt P33261, R150H); assay: Activity of human recombinant CYP2C19.11 mutant expressed in Saccharomyces cerevisiae BJ5457 assessed asomeprazole 5'-hydroxylation after 60 mins
Cytochrome P450 2C19 [17] = biological target: T9, Cytochrome P450 2C19 (Homo sapiens, UniProt P33261, S51G); assay: Activity of human recombinant CYP2C19.19 mutant expressed in Saccharomyces cerevisiae BJ5457 assessed asomeprazole 5'-hydroxylation per pmol protein after 60 mins
Cytochrome P450 2C19 [18] = biological target: T5, Cytochrome P450 2C19; assay: Activity of human recombinant CYP2C19 D360N mutant expressed in Saccharomyces cerevisiae BJ5457 assessed as intrinisic clearance foromeprazole 5'-hydroxylation per pmol protein after 60 mins
Cytochrome P450 2C19 [19] = biological target: T8, Cytochrome P450 2C19; assay: Activity of human recombinant CYP2C19.18 mutant expressed in Saccharomyces cerevisiae BJ5457 assessed asomeprazole 5'-hydroxylation after 60 mins
Cytochrome P450 2C19 [20] = biological target: T9, Cytochrome P450 2C19; assay: Activity of human recombinant CYP2C19.19 mutant expressed in Saccharomyces cerevisiae BJ5457 assessed as intrinisic clearance foromeprazole 5'-hydroxylation per pmol protein after 60 mins
Cytochrome P450 2C19 [21] = biological target: T3, Cytochrome P450 2C19; assay: Activity of human recombinant CYP2C19 W212C mutant expressed in Saccharomyces cerevisiae BJ5457 assessed as intrinisic clearance foromeprazole 5'-hydroxylation per pmol protein after 60 mins
Cytochrome P450 2C19 [22] = biological target: T7, Cytochrome P450 2C19; assay: Activity of human recombinant CYP2C19.1A mutant expressed in Saccharomyces cerevisiae BJ5457 assessed as omeprazole 5'-hydroxylation per pmol protein at 5 uM after 60 mins
Cytochrome P450 2C19 [23] = biological target: T6, Cytochrome P450 2C19; assay: Activity of human recombinant CYP2C19.13 mutant expressed in Saccharomyces cerevisiae BJ5457 assessed as intrinisic clearance foromeprazole 5'-hydroxylation per pmol protein after 60 mins
Cytochrome P450 2C19 [24] = biological target: T7, Cytochrome P450 2C19; assay: Activity of human recombinant CYP2C19.1A mutant expressed in Saccharomyces cerevisiae BJ5457 assessed asomeprazole 5'-hydroxylation per pmol protein after 60 mins
Cytochrome P450 2C19 [25] = biological target: T7, Cytochrome P450 2C19; assay: Activity of human recombinant CYP2C19.1B mutant expressed in Saccharomyces cerevisiae BJ5457 assessed asomeprazole 5'-hydroxylation per pmol protein after 60 mins
Cytochrome P450 2C19 [26] = biological target: T2, Cytochrome P450 2C19; assay: Activity of human recombinant CYP2C19 F168L mutant expressed in Saccharomyces cerevisiae BJ5457 assessed as omeprazole 5'-hydroxylation per pmol protein at 5 uM after 60 mins
Cytochrome P450 2C19 [27] = biological target: T4, Cytochrome P450 2C19; assay: Activity of human recombinant CYP2C19 E122A mutant expressed in Saccharomyces cerevisiae BJ5457 assessed as omeprazole 5'-hydroxylation per pmol protein at 100 uM after 60 mins
Cytochrome P450 2C19 [28] = biological target: T2, Cytochrome P450 2C19; assay: Activity of human recombinant CYP2C19 F168L mutant expressed in Saccharomyces cerevisiae BJ5457 assessed as intrinisic clearance foromeprazole 5'-hydroxylation per pmol protein after 60 mins
Cytochrome P450 2C19 [29] = biological target: T8, Cytochrome P450 2C19; assay: Activity of human recombinant CYP2C19.18 mutant expressed in Saccharomyces cerevisiae BJ5457 assessed as omeprazole 5'-hydroxylation per pmol protein at 100 uM after 60 mins
Cytochrome P450 2C19 [30] = biological target: T8, Cytochrome P450 2C19; assay: Activity of human recombinant CYP2C19.18 mutant expressed in Saccharomyces cerevisiae BJ5457 assessed as omeprazole 5'-hydroxylation per pmol protein at 5 uM after 60 mins
Cytochrome P450 2C19 [31] = biological target: T10, Cytochrome P450 2C19 (Homo sapiens, UniProt P33261, M74T); assay: Activity of human recombinant CYP2C19 M74T mutant expressed in Saccharomyces cerevisiae BJ5457 assessed as intrinisic clearance foromeprazole 5'-hydroxylation per pmol protein after 60 mins
Cytochrome P450 2C19 [32] = biological target: T10, Cytochrome P450 2C19; assay: Activity of human recombinant CYP2C19 M74T mutant expressed in Saccharomyces cerevisiae BJ5457 assessed as omeprazole 5'-hydroxylation per pmol protein at 100 uM after 60 mins

Km (Cytochrome P450 2C19 [1]): 10.1 µM | Km (Cytochrome P450 2C19 [2]): 6.56 µM | Km (Cytochrome P450 2C19 [3]): 11.2 µM | Vmax (Cytochrome P450 2C19 [4]): 6.21 pmol/min | CL (Cytochrome P450 2C19 [5]): 0.4 µL/min | Drug metabolism (Cytochrome P450 2C19 [6]): 7.02 pmol/min | Km (Cytochrome P450 2C19 [7]): 12.3 µM | Vmax (Cytochrome P450 2C19 [8]): 4.11 pmol/min | Drug metabolism (Cytochrome P450 2C19 [9]): 1.95 pmol/min | Drug metabolism (Cytochrome P450 2C19 [10]): 5.48 pmol/min | Drug metabolism (Cytochrome P450 2C19 [11]): 3.03 pmol/min | Vmax (Cytochrome P450 2C19 [12]): 8.18 pmol/min | Drug metabolism (Cytochrome P450 2C19 [13]): metabolite_not_detected | CL (Cytochrome P450 2C19 [14]): 1.3 µL/min | Drug metabolism (Cytochrome P450 2C19 [15]): 5.87 pmol/min | Km (Cytochrome P450 2C19 [16]): 4.91 µM | Vmax (Cytochrome P450 2C19 [17]): 9.59 pmol/min | CL (Cytochrome P450 2C19 [18]): 0.53 µL/min | Km (Cytochrome P450 2C19 [19]): 6.02 µM | CL (Cytochrome P450 2C19 [20]): 0.66 µL/min | CL (Cytochrome P450 2C19 [21]): 0.18 µL/min | Drug metabolism (Cytochrome P450 2C19 [22]): 2.75 pmol/min | CL (Cytochrome P450 2C19 [23]): 1.54 µL/min | Vmax (Cytochrome P450 2C19 [24]): 7.97 pmol/min | Vmax (Cytochrome P450 2C19 [25]): 5.12 pmol/min | Drug metabolism (Cytochrome P450 2C19 [26]): 3.08 pmol/min | Drug metabolism (Cytochrome P450 2C19 [27]): 4.71 pmol/min | CL (Cytochrome P450 2C19 [28]): 0.94 µL/min | Drug metabolism (Cytochrome P450 2C19 [29]): 4.83 pmol/min | Drug metabolism (Cytochrome P450 2C19 [30]): 2.21 pmol/min | CL (Cytochrome P450 2C19 [31]): 1.11 µL/min | Drug metabolism (Cytochrome P450 2C19 [32]): 4.27 pmol/min
Structure (SMILES): COc1ccc2[nH]c([S+]([O-])Cc3ncc(C)c(OC)c3C)nc2c1 (configuration not stated) [OMEPRAZOLE]
